Experimental findings from patent publication US20170224683A1, “TREATMENT OF MELANOMA BY BLOCKING BENZAMIL SENSITIVE ION CHANNELS/EXCHANGERS” (The Board of Trustees of the Leland Stanford Junior …, priority 2014, published 2017) are described below.

Structures are written as SMILES.

Type in all cases: cell-based
The subject of data set [1] is V12 Rac1 mutant primary foreskin-derived melanocytes. In words: MTT proliferation assay, V12 Rac1 melanocytes. The protocol:
FIG. 1A-1C: Benzamil inhibits V12 Rac1 driven melanocyte invasion and proliferation in vitro. […] Invasion was abolished in conditions treated with 50 uM Benzamil (FIG. 1A, FIG. 1B).
Invasion was abolished in conditions treated with 50 μM Benzamil.
(§1) MTT proliferation assay. 25000 melanocytes were plated in each well in a 96 well plate, and incubated with 100 ul DMEM with 10% FBS 1% AA for 24 hours. 10 ul MTT reagent (MTT proliferation assay, ATCC, Manassas, US) was added for 4 hours, 100 ul detergent was added to each well for 2 hours., and absorbance read at 570 nm (Spectramax M5, Molecular Devices, US), normalized to cell-free control absorbance.
On the technique in general: Tetrazolium dyes change colour on reduction, which living cells bring about.

Data set [2] concerns COLO829 melanoma cell line. In words: MTT proliferation assay, COLO829. The note with it: 50 uM. The protocol: (§2) FIG. 3A-3D: Benzamil reduce invasion and proliferation of melanoma cell lines expressing increased Rac1GTP. […] Stimulation with Benzamil at 50 uM was not toxic, but reduced proliferation in COLO829,MM485,CHL1 melanoma cell lines similar to V12 Rac1 mutant primary melanocytes FIG. 3D.
(§3) Benzamil reduce invasion and proliferation of melanoma cell lines expressing increased Rac1GTP. […] Stimulation with Benzamil at 50 μM was not toxic, but reduced proliferation in COLO829,MM485,CHL1 melanoma cell lines similar to V12 Rac1 mutant primary melanocytes.
as §1

A further data set concerns MM485 melanoma cell line. In words: MTT proliferation assay, MM485. To be noted: 50 uM. The procedure: as §2, §3, §1
The next data set concerns CHL1 melanoma cell line. In words: MTT proliferation assay, CHL1. The note with it: 50 uM. The protocol:
as §2, §3, §1

`NC(=NCc1ccccc1)NC(=O)c1nc(Cl)c(N)nc1N` [Benzamil, benzyl amiloride]: in data set [1], the “Dosage tolerated in vitro (assessed by detectable proliferation)” value is “up to 100 uM”. Also, the toxicity entry (in data set [2]; with MM485 melanoma cell line; in the data set on CHL1 melanoma cell line) was “not toxic” throughout.
